How the values were obtained:
Format in all cases: in vivo
[1] = system: Velvetleaf; assay: Pre-emergence herbicide test; settings: Abutilon theophrasti, read-out: % plant inhibition (Vele); for inhibition at 11210 g/ha: 11.21 kg/ha; for inhibition at 1120 g/ha: 1.12 kg/ha
In short: (§1)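 Seeds or perennial propagules sown on compacted topsoil in pans; known amount of active ingredient in organic solvent (e.g., acetone) or water applied directly to seed bed, then covered with untreated topsoil. Greenhouse, bottom-watered; % inhibition scored about 10-14 days (usually 11 days) after seeding.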

[2] = system: Cocklebur; assay: Pre-emergence herbicide test; settings: Xanthium strumarium, read-out: % plant inhibition (Cobu); for inhibition at 11210 g/ha: 11.21 kg/ha; for inhibition at 1120 g/ha: 1.12 kg/ha
In short: as §1

[3] = system: Indian Mustard; assay: Pre-emergence herbicide test; settings: Brassica juncea, read-out: % plant inhibition (Inmu); for inhibition at 11210 g/ha: 11.21 kg/ha; for inhibition at 1120 g/ha: 1.12 kg/ha
In short: as §1

[4] = system: Downy Brome; assay: Pre-emergence herbicide test; settings: Bromus tectorum, read-out: % plant inhibition (Dobr); for inhibition at 11210 g/ha: 11.21 kg/ha; for inhibition at 1120 g/ha: 1.12 kg/ha
In short: as §1

[5] = system: Seedling johnsongrass; assay: Pre-emergence herbicide test; settings: Sorghum halepense, read-out: % plant inhibition (Sejg); for inhibition at 11210 g/ha: 11.21 kg/ha; for inhibition at 1120 g/ha: 1.12 kg/ha
In short: as §1

[6] = system: Annual bluegrass; assay: Pre-emergence herbicide test; settings: read-out: % plant inhibition (Anbg); for inhibition at 11210 g/ha: 11.21 kg/ha; for inhibition at 1120 g/ha: 1.12 kg/ha
In short: as §1

[7] = system: Wild buckwheat; assay: Pre-emergence herbicide test; settings: Fallopia convolvulus, read-out: % plant inhibition (Wibw); for inhibition at 11210 g/ha: 11.21 kg/ha; for inhibition at 1120 g/ha: 1.12 kg/ha
In short: as §1

[8] = system: Morningglory; assay: Pre-emergence herbicide test; settings: Ipomoea, read-out: % plant inhibition (Mogl); for inhibition at 11210 g/ha: 11.21 kg/ha; for inhibition at 1120 g/ha: 1.12 kg/ha
In short: as §1

[9] = system: Yellow nutsedge; assay: Pre-emergence herbicide test; settings: Cyperus, read-out: % plant inhibition (Yens); for inhibition at 11210 g/ha: 11.21 kg/ha; for inhibition at 1120 g/ha: 1.12 kg/ha
In short: as §1

[10] = system: Barnyardgrass; assay: Pre-emergence herbicide test; settings: Echinochloa crus-galli, read-out: % plant inhibition (Bygr); for inhibition at 11210 g/ha: 11.21 kg/ha; for inhibition at 1120 g/ha: 1.12 kg/ha
In short: as §1

[11] = system: Velvetleaf; assay: Post-emergence herbicide test; settings: Abutilon theophrasti, read-out: % plant inhibition (Vele); for inhibition at 11210 g/ha: 11.21 kg/ha; for inhibition at 1120 g/ha: 1.12 kg/ha
In short: (§2)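 Candidate compound was suspended or dissolved with about 0.4% by volume emulsifier and sprayed onto emerged plants two to three weeks old. Application volume equalled 1870 L/Ha at 170.3 kPa. Plants then returned to greenhouse; percent inhibition compared with control recorded at 10–14 days.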

[12] = system: Cocklebur; assay: Post-emergence herbicide test; settings: Xanthium strumarium, read-out: % plant inhibition (Cobu); for inhibition at 11210 g/ha: 11.21 kg/ha; for inhibition at 1120 g/ha: 1.12 kg/ha
In short: as §2

[13] = system: Indian Mustard; assay: Post-emergence herbicide test; settings: Brassica juncea, read-out: % plant inhibition (Inmu); for inhibition at 11210 g/ha: 11.21 kg/ha; for inhibition at 1120 g/ha: 1.12 kg/ha
In short: as §2

[14] = system: Downy Brome; assay: Post-emergence herbicide test; settings: Bromus tectorum, read-out: % plant inhibition (Dobr); for inhibition at 11210 g/ha: 11.21 kg/ha; for inhibition at 1120 g/ha: 1.12 kg/ha
In short: as §2

[15] = system: Seedling johnsongrass; assay: Post-emergence herbicide test; settings: Sorghum halepense, read-out: % plant inhibition (Sejg); for inhibition at 11210 g/ha: 11.21 kg/ha; for inhibition at 1120 g/ha: 1.12 kg/ha
In short: as §2

[16] = system: Annual bluegrass; assay: Post-emergence herbicide test; settings: read-out: % plant inhibition (Anbg); for inhibition at 11210 g/ha: 11.21 kg/ha; for inhibition at 1120 g/ha: 1.12 kg/ha
In short: as §2

[17] = system: Wild buckwheat; assay: Post-emergence herbicide test; settings: Fallopia convolvulus, read-out: % plant inhibition (Wibw); for inhibition at 11210 g/ha: 11.21 kg/ha; for inhibition at 1120 g/ha: 1.12 kg/ha
In short: as §2

[18] = system: Morningglory; assay: Post-emergence herbicide test; settings: Ipomoea, read-out: % plant inhibition (Mogl); for inhibition at 11210 g/ha: 11.21 kg/ha; for inhibition at 1120 g/ha: 1.12 kg/ha
In short: as §2

[19] = system: Yellow nutsedge; assay: Post-emergence herbicide test; settings: Cyperus, read-out: % plant inhibition (Yens); for inhibition at 11210 g/ha: 11.21 kg/ha; for inhibition at 1120 g/ha: 1.12 kg/ha
In short: as §2

[20] = system: Barnyardgrass; assay: Post-emergence herbicide test; settings: Echinochloa crus-galli, read-out: % plant inhibition (Bygr); for inhibition at 11210 g/ha: 11.21 kg/ha; for inhibition at 1120 g/ha: 1.12 kg/ha
In short: as §2

SMILES	inhibition at 11210 g/ha [1] [%]	inhibition at 11210 g/ha [2] [%]	inhibition at 11210 g/ha [3] [%]	inhibition at 11210 g/ha [4] [%]	inhibition at 11210 g/ha [5] [%]	inhibition at 11210 g/ha [6] [%]	inhibition at 11210 g/ha [7] [%]	inhibition at 11210 g/ha [8] [%]	inhibition at 11210 g/ha [9] [%]	inhibition at 11210 g/ha [10] [%]	inhibition at 11210 g/ha [11] [%]	inhibition at 11210 g/ha [12] [%]	inhibition at 11210 g/ha [13] [%]	inhibition at 11210 g/ha [14] [%]	inhibition at 11210 g/ha [15] [%]	inhibition at 11210 g/ha [16] [%]	inhibition at 11210 g/ha [17] [%]	inhibition at 11210 g/ha [18] [%]	inhibition at 11210 g/ha [19] [%]	inhibition at 11210 g/ha [20] [%]	also measured
Cn1nc(-c2cc(NC(=O)C(F)(F)F)c(Cl)cc2Cl)c(Cl)c1C(F)(F)F [Compound 88]	80	20	20	10	30	20	100	10	10	10	100	100	60	10	70	10	100	100	0	50	
CCC(C)COC(=O)COc1cc(-c2nn(C)c(C(F)(F)F)c2Cl)c(F)cc1Cl (centres unmarked) [Compound 287]																					inhibition at 1120 g/ha [1]: 100%; inhibition at 1120 g/ha [2]: 90%; inhibition at 1120 g/ha [3]: 60%; inhibition at 1120 g/ha [4]: 0%; inhibition at 1120 g/ha [5]: 0%; inhibition at 1120 g/ha [6]: 0%; inhibition at 1120 g/ha [7]: 80%; inhibition at 1120 g/ha [8]: 70%; inhibition at 1120 g/ha [9]: 30%; inhibition at 1120 g/ha [10]: 0%; inhibition at 1120 g/ha [11]: 100%; inhibition at 1120 g/ha [12]: 100%; inhibition at 1120 g/ha [13]: 20%; inhibition at 1120 g/ha [14]: 10%; inhibition at 1120 g/ha [15]: 80%; inhibition at 1120 g/ha [16]: 0%; inhibition at 1120 g/ha [17]: 90%; inhibition at 1120 g/ha [18]: 100%; inhibition at 1120 g/ha [19]: 10%; inhibition at 1120 g/ha [20]: 70%
Cn1nc(-c2ccc(Cl)cc2)c(Cl)c1C(F)(F)Cl [Compound 83]	90	40	60	90	100	40	90	30	20	60	100	70	90	40	60	0	100	80	20	40	
CCOC(=O)C(C)Oc1cc(-c2nn(C)c(C(F)(F)F)c2Cl)c(F)cc1Br (centres unmarked) [Compound 97]																					inhibition at 1120 g/ha [1]: 100%; inhibition at 1120 g/ha [2]: 90%; inhibition at 1120 g/ha [3]: 90%; inhibition at 1120 g/ha [4]: 80%; inhibition at 1120 g/ha [5]: 50%; inhibition at 1120 g/ha [6]: 80%; inhibition at 1120 g/ha [7]: 100%; inhibition at 1120 g/ha [8]: 40%; inhibition at 1120 g/ha [9]: 20%; inhibition at 1120 g/ha [10]: 50%; inhibition at 1120 g/ha [11]: 100%; inhibition at 1120 g/ha [12]: 100%; inhibition at 1120 g/ha [13]: 100%; inhibition at 1120 g/ha [14]: 90%; inhibition at 1120 g/ha [15]: 60%; inhibition at 1120 g/ha [16]: 70%; inhibition at 1120 g/ha [17]: 100%; inhibition at 1120 g/ha [18]: 90%; inhibition at 1120 g/ha [19]: 50%; inhibition at 1120 g/ha [20]: 100%
Cn1nc(-c2ccc(Cl)cc2Cl)c(Cl)c1C(F)(F)F [Compound 85]	100	40	100	100	100	100	100	100	0	100	100	40	20	50	90	60	100	100	20	70	
C#CCOc1cc(-c2nn(C)c(C(F)(F)Cl)c2Cl)c(F)cc1Cl [Compound 303]	100	100	100	100	100	100	100	100	0	100	100	100	100	100	100	100	100	100	70	100	
COc1cc(F)c(-c2c(Cl)c(C(F)(F)F)nn2C)cc1[N+](=O)[O-] [Compound 78]	0	0	0	0	0	0	0	0	0	0	40	10	40	10	10	0	30	10	0	0	
Cc1cc(-c2nn(C)c(C(F)F)c2Cl)c(F)cc1Cl [Compound 126]																					inhibition at 1120 g/ha [1]: 100%; inhibition at 1120 g/ha [2]: 50%; inhibition at 1120 g/ha [3]: 100%; inhibition at 1120 g/ha [4]: 100%; inhibition at 1120 g/ha [5]: 100%; inhibition at 1120 g/ha [6]: 100%; inhibition at 1120 g/ha [7]: 100%; inhibition at 1120 g/ha [8]: 100%; inhibition at 1120 g/ha [9]: 0%; inhibition at 1120 g/ha [10]: 100%; inhibition at 1120 g/ha [11]: 90%; inhibition at 1120 g/ha [12]: 30%; inhibition at 1120 g/ha [13]: 40%; inhibition at 1120 g/ha [14]: 0%; inhibition at 1120 g/ha [15]: 30%; inhibition at 1120 g/ha [16]: 40%; inhibition at 1120 g/ha [17]: 80%; inhibition at 1120 g/ha [18]: 60%; inhibition at 1120 g/ha [19]: 10%; inhibition at 1120 g/ha [20]: 50%
CC(C)CCOC(=O)COc1cc(-c2nn(C)c(C(F)(F)F)c2Cl)c(F)cc1Cl [Compound 288]																					inhibition at 1120 g/ha [1]: 100%; inhibition at 1120 g/ha [2]: 30%; inhibition at 1120 g/ha [3]: 20%; inhibition at 1120 g/ha [4]: 0%; inhibition at 1120 g/ha [5]: 0%; inhibition at 1120 g/ha [6]: 0%; inhibition at 1120 g/ha [7]: 90%; inhibition at 1120 g/ha [8]: 100%; inhibition at 1120 g/ha [9]: 0%; inhibition at 1120 g/ha [10]: 0%; inhibition at 1120 g/ha [11]: 100%; inhibition at 1120 g/ha [12]: 100%; inhibition at 1120 g/ha [13]: 90%; inhibition at 1120 g/ha [14]: 0%; inhibition at 1120 g/ha [15]: 20%; inhibition at 1120 g/ha [16]: 0%; inhibition at 1120 g/ha [17]: 100%; inhibition at 1120 g/ha [18]: 100%; inhibition at 1120 g/ha [19]: 10%; inhibition at 1120 g/ha [20]: 50%
Cn1nc(-c2cc(C=NOCC(N)=O)c(Cl)cc2F)c(Cl)c1C(F)(F)F [Compound 131]																					inhibition at 1120 g/ha [1]: 100%; inhibition at 1120 g/ha [2]: 80%; inhibition at 1120 g/ha [3]: 90%; inhibition at 1120 g/ha [4]: 30%; inhibition at 1120 g/ha [5]: 70%; inhibition at 1120 g/ha [6]: 0%; inhibition at 1120 g/ha [7]: 100%; inhibition at 1120 g/ha [8]: 100%; inhibition at 1120 g/ha [9]: 20%; inhibition at 1120 g/ha [10]: 40%; inhibition at 1120 g/ha [11]: 100%; inhibition at 1120 g/ha [12]: 100%; inhibition at 1120 g/ha [13]: 40%; inhibition at 1120 g/ha [14]: 20%; inhibition at 1120 g/ha [15]: 50%; inhibition at 1120 g/ha [16]: 20%; inhibition at 1120 g/ha [17]: 100%; inhibition at 1120 g/ha [18]: 100%; inhibition at 1120 g/ha [19]: 30%; inhibition at 1120 g/ha [20]: 0%

Source: patent publication US5530126A, “Process for the preparation of substituted 6-(pyrazol-3yl)-1,4-benzoxazin-3-ones” (Monsanto Company, priority 1994, dated 1996)
